Data from patent US20220016101A1 (ACADIA Pharmaceuticals Inc., priority 2018, published 2022).
Several values for one entry are separate records, joined by “and”; a condition that tells them apart may be missing. Equal values may be shown once.

Experiments:
[1] = tested on: adults with Parkinson's disease and depression; assay: Adverse events, open-label study in Parkinson's disease and depression; type: in vivo, human; conditions: of the first 31 patients; most common falls, UTI, diarrhea, nausea
From the text: Subjects can receive treatment as either monotherapy or adjunctively if inadequately controlled with SSRI/SNRI monotherapy. A primary endpoint of the study is change from baseline to Week 8 in the Hamilton Depression Scale 17-item (HAMD-17) total score. Secondary endpoints include Clinical Global Impression (CGI) scales (improvement and severity), Scale of Outcomes in PD-Sleep (SCOPA), and quality of life as measured by EuroQol-5 dimensions-5 levels (EQ-5D-5L).
Adverse events were classified into standard terminology using the Medical Dictionary for Regulatory Activities (MedDRA). Treatment-emergent adverse events (TEAEs), TEAEs leading to discontinuation, TEAEs related to study drug, TEAEs by maximum severity, serious adverse events (SAEs), and SAEs related to study drug were summarized.

serotonin transporter = serotonin transporter (Homo sapiens, UniProt P31645); assay: Receptor profile: affinity (Ki) at SERT; type: binding; conditions: data on file
Sequence of serotonin transporter (P31645 whole entry): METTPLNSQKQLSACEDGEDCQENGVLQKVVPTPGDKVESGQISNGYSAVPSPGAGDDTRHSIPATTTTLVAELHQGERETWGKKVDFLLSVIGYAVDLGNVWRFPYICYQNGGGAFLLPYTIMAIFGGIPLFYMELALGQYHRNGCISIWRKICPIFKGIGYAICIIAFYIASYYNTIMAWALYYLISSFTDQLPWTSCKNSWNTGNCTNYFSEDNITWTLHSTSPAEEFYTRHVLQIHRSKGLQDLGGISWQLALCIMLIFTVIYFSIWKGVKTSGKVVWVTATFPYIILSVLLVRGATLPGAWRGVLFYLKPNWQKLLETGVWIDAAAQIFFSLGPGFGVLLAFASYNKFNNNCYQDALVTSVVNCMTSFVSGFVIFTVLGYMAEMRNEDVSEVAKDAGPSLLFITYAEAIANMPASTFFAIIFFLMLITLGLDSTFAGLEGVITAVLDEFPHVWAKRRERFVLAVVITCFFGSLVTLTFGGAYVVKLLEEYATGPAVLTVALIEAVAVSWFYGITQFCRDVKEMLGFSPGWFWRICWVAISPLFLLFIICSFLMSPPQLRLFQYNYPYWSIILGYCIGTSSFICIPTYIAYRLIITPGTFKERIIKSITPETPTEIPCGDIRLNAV

[2] = tested on: patients with MDD and an inadequate response to an SSRI or SNRI; assay: Karolinska Sleepiness Scale (KSS), MDD study; type: in vivo, human; conditions: Week 5 of Stage 1
Description: “Karolinska Sleepiness Scale (KSS)” is a scale for evaluating subjective sleepiness (Kaida et al. Clinical Neurophysiology 2006, 117, 7, 1574-1581).
(§1) Clinic visits occurred weekly from Weeks 1 through 10. The MADRS was administered at screening and baseline. The HAMD-17, SDS, CGI, and KSS were administered at baseline and weekly during the study. Other endpoints such as the SF-12 were administered at baseline and Weeks 5 and 10. Treatment response was defined as a reduction of 50% from baseline for the HAMD-17 total score, and remission was defined as a HAMD-17 total score

[3] = tested on: patients with MDD and an inadequate response to an SSRI or SNRI; assay: HAMD-17 total score, adjunctive pimavanserin in MDD (Study ACP-103-042); type: in vivo, human; conditions: for Response Rate: 50% or greater reduction on HAMD-17
From the text: “Hamilton Depression Scale 17-item (HAMD-17)” is a multiple item questionnaire used to provide an indication of depression, and is known to those skilled in the art. The questionnaire is designed for adults to rate the severity of depression by probing mood, feelings of guilt, suicide ideation, insomnia, work and interests, agitation or retardation, anxiety, weight loss, and somatic symptoms. Each item on the questionnaire is scored on a 3 or 5 point scale, depending on the item, and the total score is compared to the corresponding descriptor. A score of 0-7 is considered to be normal. Scores of 14 or higher indicate moderate, severe, or very severe depression. Assessment time is estimated at 20 minutes. […] Key endpoints were change from baseline to the end of each stage for the HAMD-17 total score and SDS score. The study consisted of an 8- to 21-day screening period, a 10-week double-blind treatment period, and a safety follow up period of up to 30 days. Screening assessments consisted of the SAFER Interview ([…] al, Harv Rev Psychiatry. 2013; 21(5):269-74), which included the MADRS, CGI-S, and MGH ATRQ. […] All patients continued on their SSRI or SNRI at a stable dose for the duration of the study. […] Inadequate treatment response was determined through the administration of the MGH ATRQ administered during the SAFER interview. […] Clinic visits occurred weekly from Weeks 1 through 10. The MADRS was administered at screening and baseline. The HAMD-17, SDS, CGI, and KSS were administered at baseline and weekly during the study. Other endpoints such as the SF-12 were administered at baseline and Weeks 5 and 10. Treatment response was defined as a reduction of 50% from baseline for the HAMD-17 total score, and remission was defined as a HAMD-17 total score […] The determination of the subject's status and eligibility for randomization in Stage 2 was made in a double-blind manner.

[4] = tested on: patients with MDD and an inadequate response to an SSRI or SNRI; assay: HAMD-17 anxiety/somatization subscale score, MDD study; type: in vivo, human; conditions: for HAMD-17 anxiety/somatization subscale score LSM (SE) Change from Baseline to Week 5: 34 mg QD + SSRI/SNRI
Description: Key endpoints were change from baseline to the end of each stage for the HAMD-17 total score and SDS score.
(§2) All patients continued on their SSRI or SNRI at a stable dose for the duration of the study.
as §1
A higher HAMD-17 anxiety/somatization subscale score indicates more severe depression with anxiety symptoms.

[5] = tested on: patients with MDD and an inadequate response to an SSRI or SNRI; assay: HAMD-17 melancholic symptom subscale score (HAMD-6), MDD study; type: in vivo, human; conditions: for HAMD-17 Melancholic Symptom Subscale Score Change from Baseline to Week 5 Mean (SE) / HAMD-17 Melancholic Symptom Subscale Score Change from Baseline to Week 5 Median: 34 mg QD + SSRI/SNRI
From the text: “Hamilton Depression Scale 6-item (HAMD-6)” is a subscale derived from the 17-item Hamilton Rating Scale for Depression (HAMD-17). HAMD-6 includes the following items: depressed mood, guilt feelings, work and interests, psychomotor retardation, psychic anxiety, and general somatic symptoms (Bech et al. Acta Psychiatr Scand. 1975, 51(3):161-70).
as §2
A higher HAMD-17 melancholic symptom subscale score indicates more severe depression […]. The abbreviations are: CI=confidence interval; LSM=least squares mean; MMRM=mixed-effects model for repeated measures; OC=observed cases; SD=standard deviation; SE=standard error. In Stage 1, Baseline=Study Week 0, Weeks 1-5=Study Weeks 1-5; and in Stage 2, Baseline=Study Week 5, Weeks 1-5=Study Weeks 6-10. LSM is from the stage-specific MMRM analysis with the change from baseline as the outcome; treatment group, visit, treatment-by-visit interaction, baseline melancholic symptom subscale score, and baseline melancholic symptom subscale score-by-visit interaction as the factors. An unstructured covariance matrix is used to model the within-subject errors. The denominator degrees of freedom are estimated using the Kenward-Roger approximation. 2-Sided p-value is for treatment difference from the stage-specific MMRM analysis.

[6] = Stage 1, subgroup baseline anxiety/somatization subscale score ≥7
[7] = Stage 2, subgroup baseline anxiety/somatization subscale score ≥7
[8] = Stage 1, subgroup baseline subscale score ≥7
[9] = Stage 2, subgroup baseline subscale score ≥7

## CC(C)COc1ccc(CNC(=O)N(Cc2ccc(F)cc2)C2CCN(C)CC2)cc1 [pimavanserin, N-(4-Fluorophenylmethyl)-N-(1-methylpiperidin-4-yl)-N′-(4-(2-methylpropyloxy)phenylmethyl)carbamide]
[1]
  patients reporting adverse events: 13
Serotonin transporter
  Ki: > 1 µM
[2]
  KSS effect size: 0.627
[2]; daytime sleepiness
  KSS LSmean difference from baseline for pimavanserin vs. placebo: −1.1 (0.30)
[3]; Stage 1
  NNT for remission: 8.1
  early improvement (reduction from baseline in HAMD-17 total score of 20% or more) vs placebo: early improvement at week 1 was observed
[3]; Stage 1, Week 2 through Week 5
  response and remission rates vs placebo: significantly (p<0.05) greater
[3]; Stage 1, 34 mg QD + SSRI/SNRI
  HAMD-17 total score LSmean (SE) change from baseline to Week 5: −11.5 (0.94)
  Remission Rate: 23.5%
  Response Rate: 52.9%
[3]; Stage 1, 34 mg QD + SSRI/SNRI, listed as Pimavanserin
  HAMD-17 total score LSmean (SE) change from baseline to Week 5: −11.5
[3]; Stage 1, response = reduction of 50% from baseline HAMD-17 total score
  NNT for response: 3.6
[3]; [6]
  HAMD-17 total score Diff in LSM (SE) vs placebo: −6.6 (1.64)
  HAMD-17 total score effect size (Cohen's d): 0.940
[3]; Stage 1, subgroup baseline anxiety/somatization subscale score ≥7, 34 mg QD + SSRI/SNRI
  HAMD-17 total score LSM (SE) Change from Baseline to Week 5: −14.1 (1.39)
[3]; Stage 1 Week 5, 34 mg QD + SSRI/SNRI
  HAMD-17 total score effect size (Cohen's d): 0.626 and ~0.6
[3]; Stage 1 Week 5, 34 mg QD + SSRI/SNRI, listed as Pimavanserin
  HAMD-17 total score effect size (Cohen's d): 0.626
[3]; Stage 2 (placebo non-responders re-randomized), 34 mg QD + SSRI/SNRI
  HAMD-17 total score LSM change from baseline to Week 5: −2.8
[3]; Stage 2, 34 mg QD + SSRI/SNRI
  HAMD-17 Cohen's d: −0.107
  HAMD-17 difference between pimavanserin and placebo (delta): 0.5
  Remission Rate: 3.4%
  Response Rate: 6.9%
[3]; [7]
  HAMD-17 total score Diff in LSM (SE) vs placebo: 0.9 (1.84)
  HAMD-17 total score effect size (Cohen's d): −0.173
[3]; Stage 2, subgroup baseline anxiety/somatization subscale score ≥7, 34 mg QD + SSRI/SNRI
  HAMD-17 total score LSM (SE) Change from Baseline to Week 5: −3.4 (1.25)
[3]; continuous treatment for 10 weeks in Stages 1 and 2, 34 mg QD + SSRI/SNRI
  HAMD-17 effect size, treatment difference in LSmean change from baseline to Week 10: 0.497
[3]; overall (weighted Stage 1 and Stage 2), 34 mg QD + SSRI/SNRI
  HAMD-17 total LSmean difference [standard error] pimavanserin vs placebo: -1.7 (0.85)
[4]; Stage 1
  HAMD-17 anxiety/somatization subscale score Diff in LSM (SE) vs placebo: −1.5 (0.41)
  HAMD-17 anxiety/somatization subscale score Effect Size (Cohen's d): 0.634
  HAMD-17 anxiety/somatization subscale score LSM (SE) Change from Baseline to Week 5: −3.7 (0.36)
[4]; [6]
  HAMD-17 anxiety/somatization subscale score LSM (SE) Change from Baseline to Week 5: −5.0 (0.56)
[4]; [8]
  HAMD-17 anxiety/somatization subscale score Diff in LSM (SE) vs placebo: −2.2 (0.66)
  HAMD-17 anxiety/somatization subscale score Effect Size (Cohen's d): 0.781
[4]; Stage 2
  HAMD-17 anxiety/somatization subscale score Diff in LSM (SE) vs placebo: 0.0 (0.48)
  HAMD-17 anxiety/somatization subscale score Effect Size (Cohen's d): −0.007
  HAMD-17 anxiety/somatization subscale score LSM (SE) Change from Baseline to Week 5: −0.6 (0.33)
[4]; [7]
  HAMD-17 anxiety/somatization subscale score LSM (SE) Change from Baseline to Week 5: −1.3 (0.44)
[4]; [9]
  HAMD-17 anxiety/somatization subscale score Diff in LSM (SE) vs placebo: 0.1 (0.66)
  HAMD-17 anxiety/somatization subscale score Effect Size (Cohen's d): −0.067
[5]; Stage 1
  HAMD-17 Melancholic Symptom Subscale Score Effect Size (Cohen's d): 0.558
  HAMD-17 Melancholic Symptom Subscale Score Change from Baseline to Week 5 Mean (SE): −6.8 (0.62)
  HAMD-17 Melancholic Symptom Subscale Score Change from Baseline to Week 5 Median: −8.0
[5]; Stage 2
  HAMD-17 Melancholic Symptom Subscale Score Effect Size (Cohen's d): −0.304
  HAMD-17 Melancholic Symptom Subscale Score Change from Baseline to Week 5 Mean (SE): −1.0 (0.46)
  HAMD-17 Melancholic Symptom Subscale Score Change from Baseline to Week 5 Median: −1.0
